The record followed here is patent US4868321A, “Isothiocyanate intermediates” (FMC Corporation, priority 1988, dated 1989).

Common to all, as to format: in vivo
The subject of assay [1] is Cotton. As to the kind of experiment: Preemergence Herbicidal Activity, Cotton. The settings on record: Gossypium hirsutum, pre-emergence; for plant injury at 500 g/ha: 0.5 kg/ha. From the text: (§1) The herbicidal data in the following Tables 3 and 4 was obtained in the manner described in PCT published application no. WO 85/01939, previously mentioned, usually employing solutions of the herbicidal compound in 50/50 acetone/water mixtures. In those tables, the test compounds are identified by numbers which correspond to those in Table 1, "kg/ha" is kilograms per hectare, and "% C" is percent control.

For assay [2], the system named is Soybean. As to the kind of experiment: Preemergence Herbicidal Activity, Soybean. The settings on record: for plant injury at 500 g/ha: 0.5 kg/ha. From the text: (§2) The herbicidal data in the following Tables 3 and 4 was obtained in the manner described in PCT published application no. […] In those tables, the test compounds are identified by numbers which correspond to those in Table 1, "kg/ha" is kilograms per hectare, and "% C" is percent control.

For assay [3], the system named is Field Corn. As to the kind of experiment: Preemergence Herbicidal Activity, Field Corn. The settings on record: Zea mays, pre-emergence; for plant injury at 500 g/ha: 0.5 kg/ha.
Source text: as §2

Assay [4] deals with Rice. As to the kind of experiment: Preemergence Herbicidal Activity, Rice. The settings on record: Oryza sativa, pre-emergence; for plant injury at 500 g/ha: 0.5 kg/ha.
Source text: as §2

Assay [5] deals with Wheat. As to the kind of experiment: Preemergence Herbicidal Activity, Wheat. The settings on record: Triticum aestivum, pre-emergence; for plant injury at 500 g/ha: 0.5 kg/ha.
Source text: as §2

The test system of the next assay is Field Bindweed. As to the kind of experiment: Preemergence Herbicidal Activity, Field Bindweed. The settings on record: pre-emergence.
Source text: as §1

Assay [6] concerns Morningglory. As to the kind of experiment: Preemergence Herbicidal Activity, Morningglory. To be noted: Ipomoea, pre-emergence; for pest or weed control at 500 g/ha: 0.5 kg/ha.
Source text: as §1

Assay [7] deals with Velvetleaf. Description: Preemergence Herbicidal Activity, Velvetleaf. The settings on record: Abutilon theophrasti, pre-emergence; for pest or weed control at 500 g/ha: 0.5 kg/ha.
Source text: as §1

Assay [8] deals with Barnyardgrass. As to the kind of experiment: Preemergence Herbicidal Activity, Barnyardgrass. To be noted: Echinochloa crus-galli, pre-emergence; for pest or weed control at 500 g/ha: 0.5 kg/ha.
Source text: as §2

Assay [9] relates to Green Foxtail. As to the kind of experiment: Preemergence Herbicidal Activity, Green Foxtail. To be noted: Setaria viridis, pre-emergence; for pest or weed control at 500 g/ha: 0.5 kg/ha.
Source text: as §2

Assay [10] concerns Johnsongrass. As to the kind of experiment: Preemergence Herbicidal Activity, Johnsongrass. The settings on record: Sorghum halepense, pre-emergence; for pest or weed control at 500 g/ha: 0.5 kg/ha.
Source text: as §2

The test system of assay [11] is Soybean. As to the kind of experiment: Postemergence Herbicidal Activity, Soybean. The settings on record: Glycine max, post-emergence.
Source text: as §2

Assay [12] deals with Field Corn. Description: Postemergence Herbicidal Activity, Field Corn. To be noted: Zea mays, post-emergence.
Source text: as §2

Assay [13] has as its system Rice. Description: Postemergence Herbicidal Activity, Rice. To be noted: Oryza sativa, post-emergence.
Source text: as §2

In assay [14] the test system is Wheat. Description: Postemergence Herbicidal Activity, Wheat. To be noted: Triticum aestivum, post-emergence.
Source text: as §2

In assay [15] the test system is Morningglory. Description: Postemergence Herbicidal Activity, Morningglory.
Source text: as §1

The test system of assay [16] is Barnyardgrass. As to the kind of experiment: Postemergence Herbicidal Activity, Barnyardgrass. To be noted: Echinochloa crus-galli, post-emergence.
Source text: as §2

Assay [17] has as its system Green Foxtail. As to the kind of experiment: Postemergence Herbicidal Activity, Green Foxtail. To be noted: Setaria viridis, post-emergence.
Source text: as §2

The subject of assay [18] is Johnsongrass. Description: Postemergence Herbicidal Activity, Johnsongrass. The settings on record: Sorghum halepense, post-emergence.
Source text: as §2

In assay [19] the test system is Cotton. As to the kind of experiment: Postemergence Herbicidal Activity, Cotton. To be noted: Gossypium hirsutum, post-emergence.
Source text: as §1

Assay [20] concerns Velvetleaf. Description: Postemergence Herbicidal Activity, Velvetleaf. To be noted: Abutilon theophrasti, post-emergence.
Source text: as §1

Structures can show the parent of a compound that is named as a salt.

A word on the plant injury: it is how far the test organism was held down. As usually defined, the pest or weed control is the degree to which the test organism was suppressed or injured, in per cent.

On to `CCS(=O)(=O)Nc1cc(-n2nnn(CCCF)c2=O)c(F)cc1Cl` [Compound 31, 1-[4-Chloro-2-fluoro-5-(N--ethylsulfonylamino)phenyl]-1,4-dihydro-4-(3-fluoropropyl)-5H--tetrazol-5-one potassium salt], for which the plant injury at 250 g/ha in the assay on Cotton [1] (0.25 kg/ha) amounted to 100%; in the assay with Field Corn [3] (0.25 kg/ha), 30%; in the assay on Rice [4] (0.25 kg/ha) it was 40%; in the assay on Wheat [5] (0.25 kg/ha), 20%; in the assay with Soybean [11] (0.25 kg/ha) it was 80%; in the assay on Field Corn [12] (0.25 kg/ha), 30%. Moreover, the plant injury at 250 g/ha in the assay with Rice [13] (0.25 kg/ha) and in the assay with Wheat [14] (0.25 kg/ha) was 40% each time. Besides, in the assay with Soybean [2] (0.25 kg/ha, potassium salt), the “Preemergence Herbicidal Activity” value stood at 10 % Control. For the same compound, the pest or weed control at 250 g/ha with Field Bindweed (0.25 kg/ha) was determined as 100%; in the assay with Morningglory [6] (0.25 kg/ha), 100%; in the assay on Velvetleaf [7] (0.25 kg/ha), 100%; with Barnyardgrass [8] (0.25 kg/ha) it was 95%; in the assay on Green Foxtail [9] (0.25 kg/ha), 50%; in the assay with Johnsongrass [10] (0.25 kg/ha), 70%. The pest or weed control at 250 g/ha was determined as 80% in the assay with Barnyardgrass [16] (0.25 kg/ha), 60% in the assay on Green Foxtail [17] (0.25 kg/ha) and 60% in the assay on Johnsongrass [18] (0.25 kg/ha). The “Postemergence Herbicidal Activity” value in the assay on Morningglory [15] (0.25 kg/ha, potassium salt) is on record as 100 % Control.

Turning to `CS(=O)(=O)N(c1cc(-n2nnn(CCCF)c2=O)c(F)cc1Cl)S(C)(=O)=O` [Compound 9], the plant injury at 1000 g/ha was 100% in the assay with Cotton [1] (1.0 kg/ha); 50% in the assay on Soybean [2] (Glycine max, pre-emergence, 1.0 kg/ha); 100% in the assay with Field Corn [3] (1.0 kg/ha); 90% in the assay with Wheat [5] (1.0 kg/ha); 100% with Cotton [19] (1.0 kg/ha); 30% with Soybean [11] (1.0 kg/ha). In addition, the results for the plant injury at 1000 g/ha with Field Corn [12] (1.0 kg/ha) and in the assay on Wheat [14] (1.0 kg/ha) were 30% and 80%, respectively. Besides, the pest or weed control at 1000 g/ha with Morningglory [6] (1.0 kg/ha) is 100%; in the assay with Velvetleaf [7] (1.0 kg/ha), 100%; with Barnyardgrass [8] (1.0 kg/ha) it was 100%; with Green Foxtail [9] (1.0 kg/ha), 100%; with Johnsongrass [10] (1.0 kg/ha), 80%; with Morningglory [15] (Ipomoea, post-emergence, 1.0 kg/ha), 100%. For the same compound, the pest or weed control at 1000 g/ha with Velvetleaf [20] (1.0 kg/ha) is 100%; in the assay on Barnyardgrass [16] (1.0 kg/ha) it was 100%; in the assay on Green Foxtail [17] (1.0 kg/ha) it was 60%; with Johnsongrass [18] (1.0 kg/ha) it was 70%.

Turning to `CCS(=O)(=O)N(c1cc(-n2nnn(CCCF)c2=O)c(F)cc1Cl)S(=O)(=O)CC` [Compound 21, 1-[4-chloro-2-fluoro-5-[bis(N--ethylsulfonyl)amino]phenyl]-1,4-dihydro-4-(3-fluoropropyl)-5H--tetrazol-5-one], the plant injury at 500 g/ha in the assay with Cotton [1] was 95%; in the assay on Soybean [2] (Glycine max, pre-emergence) it was 20%; in the assay on Field Corn [3], 90%; with Rice [4], 80%; in the assay with Wheat [5], 95%. In addition, the pest or weed control at 500 g/ha in the assay on Morningglory [6] was determined as 95%; in the assay with Velvetleaf [7] it was 100%; with Barnyardgrass [8], 100%; in the assay with Green Foxtail [9] it was 100%; in the assay with Johnsongrass [10], 100%.

For `CCCS(=O)(=O)N(c1cc(-n2nnn(CCCF)c2=O)c(F)cc1Cl)S(=O)(=O)CCC` [Compound 26, 1-[4-chloro-2-fluoro-5-[bis(N--propylsulfonyl)amino]phenyl]-1,4-dihydro-4-(3-fluoropropyl)-5H--tetrazol-5-one], the plant injury at 500 g/ha in the assay with Cotton [1] turned out to be 50%; in the assay with Soybean [2] (Glycine max, pre-emergence) it was 0%; in the assay with Field Corn [3] it was 90%; in the assay on Rice [4], 20%; in the assay on Wheat [5], 60%; with Cotton [19] (0.5 kg/ha), 100%. Moreover, the plant injury at 500 g/ha in the assay on Soybean [11] (0.5 kg/ha) was found to be 50%; with Field Corn [12] (0.5 kg/ha), 100%; in the assay on Rice [13] (0.5 kg/ha) it was 40%; in the assay with Wheat [14] (0.5 kg/ha), 90%. The pest or weed control at 500 g/ha with Morningglory [6] worked out at 60%; in the assay on Velvetleaf [7], 100%; in the assay with Barnyardgrass [8], 100%; with Green Foxtail [9], 60%; in the assay on Johnsongrass [10], 95%; with Morningglory [15] (Ipomoea, post-emergence, 0.5 kg/ha) it was 100%. Moreover, the pest or weed control at 500 g/ha was determined as 100% in the assay with Velvetleaf [20] (0.5 kg/ha), 80% with Barnyardgrass [16] (0.5 kg/ha), 80% in the assay on Green Foxtail [17] (0.5 kg/ha) and 70% in the assay with Johnsongrass [18] (0.5 kg/ha).

With `CCS(=O)(=O)N(c1cc(-n2nnn(C)c2=O)c(F)cc1Cl)S(=O)(=O)CC` [Compound 41, 1-[4-Chloro-2-fluoro-5-[bis(N--ethylsulfonyl)amino]phenyl]-4,5-dihydro-4-methyl-5H--tetrazol-5-one], the plant injury at 2000 g/ha in the assay on Cotton [1] (2.0 kg/ha) stood at 95%; in the assay with Soybean [2] (Glycine max, pre-emergence, 2.0 kg/ha), 50%; in the assay with Field Corn [3] (2.0 kg/ha) it was 40%; in the assay on Rice [4] (2.0 kg/ha), 10%; in the assay on Wheat [5] (2.0 kg/ha), 10%. For the same compound, the pest or weed control at 2000 g/ha with Field Bindweed (2.0 kg/ha) was 100%; with Morningglory [6] (2.0 kg/ha) it was 100%; in the assay with Velvetleaf [7] (2.0 kg/ha) it was 100%; with Barnyardgrass [8] (2.0 kg/ha), 80%; in the assay on Green Foxtail [9] (2.0 kg/ha), 95%; with Johnsongrass [10] (2.0 kg/ha) it was 20%.
